Entries after “also recorded” stand apart in the source; their conditions may differ.
Assays:
PTIL194 and PTIL237 = assay: Reversal of suppressive function of PTIL194 and PTIL237 by TLR ligands (naïve CD4+ T cell proliferation); assay type: cell-based, human; details: naïve CD4+ T cells:Treg 10:1, OKT3-coated plates, FIG. 5A
Description: (§1) (C) Expression of TLR8 mRNA in CD4^+ Treg and CD8^+ Treg cell clones generated from PTIL194 by RT-PCR.
(§2) Naïve CD4^+ T cells were purified from PBMCs by using microbeads (Miltenyi Biotec). Naïve CD4^+ T cells (10^5/well) were cultured with regulatory T cells at a ratio of 10:1 in OKT3 (2 μg/ml)-coated, U bottomed 96-well plates containing the following TLR ligands. […] CpG-A (3 μg/ml), CpG-B (3 μg/ml) and poly-G3 oligonucleotides (3 μg/ml) were synthesized by Integrated DNA Technologies (Coralville, Iowa). All experiments were performed at least more than once.
CD4^+ CD25-T cells (2×10^5) purified from human PBMCs by antibody-coated beads (Dynal, Inc.) were cultured for 60 hours in U-bottomed 96-well plates containing 5×104 CD3-depleted APCs, 0.1 μg/ml anti-CD3 mAb, and different numbers of CD4^+ regulatory or effector T cells. The proliferation of responder T cells was determined by the incorporation of [H^3]thymidine for the last 16 hours of culture, as previously described (Wang et al., 2004; Wang et al., 2005). Cells were harvested and the radioactivity counted in a scintillation counter. All experiments were performed in triplicate. Transwell experiments were performed in 24-well plates with a pore size of 0.4 μm (Coming Costar, Cambridge, Mass.). 2×10^5 the freshly purified naïve CD4^+ T cells were cultured in the outer wells of 24-well plate in medium containing 0.1 μg/ml anti-CD3 antibody and 2×10^5 APCs. Equal numbers of regulatory T cells or nonregulatory T cells were added into the inner wells in the same medium containing 0.5 μg/ml anti-CD3 antibody and 2×10^5 APCs. After 56 hours of culture, the cells in the outer and inner wells were harvested separately and transferred to 96-well plates. [H^3]thymidine was added, and the cells were cultured for an additional 16 hours before harvest for the radioactivity counting with a liquid scintillation counter.
as §2, with “use of” for “using”, “following” for “following TLR”, “poly-G” for “poly-G3”, “Iowa).” for “Iowa). All experiments were performed at least more than once.”

CD4+ Treg cells = assay: Naïve T cell proliferation assay with CD4+ Treg cell populations/clones with or without TLR ligands; assay type: cell-based, human; details: prostate tumor-derived (PTIL194); FIGS. 5A, 5B
Description: as §1
(§3) To test this possibility, the suppressive effects of CD4^+ and CD8^+ Treg cells were examined on naïve T cell proliferation in a functional assay, with or without TLR8 ligands (Poly-G2 and ssRNA40) or ligands for other TLRs.
(§4) CD4^+ CD25-T cells (2×10^5) purified from human PBMCs by antibody-coated beads (Dynal, Inc.) were cultured for 60 hours in U-bottomed 96-well plates containing 5×104 CD3-depleted APCs, 0.1 μg/ml anti-CD3 mAb, and different numbers of CD4^+ regulatory or effector T cells. The proliferation of responder T cells was determined by the incorporation of [H^3]thymidine for the last 16 hours of culture, as previously described (Wang et al., 2004; Wang et al., 2005). Cells were harvested and the radioactivity counted in a scintillation counter. All experiments were performed in triplicate. Transwell experiments were performed in 24-well plates with a pore size of 0.4 μm (Coming Costar, Cambridge, Mass.). 2×10^5 the freshly purified naïve CD4^+ T cells were cultured in the outer wells of 24-well plate in medium containing 0.1 μg/ml anti-CD3 antibody and 2×10^5 APCs. […] [H^3]thymidine was added, and the cells were cultured for an additional 16 hours before harvest for the radioactivity counting with a liquid scintillation counter. […]

CD8+ Treg cells = assay: Naïve T cell proliferation assay with CD8+ Treg cell populations/clones with or without TLR ligands; assay type: cell-based, human; details: prostate tumor-derived (PTIL194); FIGS. 5A, 5B
Description: as §1, §3, §4

[1] = test system: naturally occurring CD4+ CD25+ Treg cells; assay: Reversal of suppressive function of naturally occurring CD4+ CD25+ Treg cells; assay type: cell-based
BTIL31 γδ1 Treg cells [2] = assay: Naïve CD4+ T cell proliferation ([3H]-thymidine) in coculture with BTIL31 cells plus TLR ligands; assay type: cell-based, human; details: naïve CD4+ T cells:BTIL31 10:1, OKT3-coated plates; FIG. 13A
Description: (§5) In addition, naïve CD4^+ T cells were cultured in the presence of supernatants derived from BTIL31 cells pre-treated with or without the indicated TLR ligands. The proliferation of naïve CD4^+ T cells was determined by [^3H]-thymidine incorporation assay described herein. […] CFSE-labeled Naïve CD4^+ T cells cocultured with BTIL31 cells or its clones in the presence or absence of Poly-G3 in OKT3-coated 24-well plates. After 3 days of culture, cells were harvested and analyzed for divisions by FACS gated on the CFSE-labeled cells. CFSE-labeled Naïve CD4^+ T cells alone served as a control. […] BTIL31 cells were cultured in the presence or absence of Poly-G3 for 2 days, and then tested the ability of Poly-G3-treated and untreated BTIL31 cells to kill BC31 autologous tumor cells.
as §2, with “once. […]” for “once.”

BTIL31 γδ1 Treg cells [3] = assay: Killing of BC31 autologous tumor cells by Poly-G3-treated BTIL31 cells; assay type: cell-based, human; details: BTIL31 cultured with Poly-G3 for 2 days; FIG. 13C
Description: (A). Reversal of the suppressive function of γδ 1 T cells by TLR8 ligands, but not by ligands for other TLRs. naïve CD4^+ T cells were cultured with BTIL31 cells at the ratio of 10:1 in the U bottom 96-well plates pre-coated with OKT3 in the presence of different TLR ligands: LPS, CpG-A, CpG-B, Imiquimod-R837, loxoribine, poly (I: C), ssRNA40/LyoVec, RNA33/LyoVec, pam3CSK4, flagellin and Poly-G3. In addition, naïve CD4^+ T cells were cultured in the presence of supernatants derived from BTIL31 cells pre-treated with or without the indicated TLR ligands. The proliferation of naïve CD4^+ T cells was determined by [^3H]-thymidine incorporation assay described herein. Results are one representative data of three independent experiments. (B) Restoration of CFSE-naïve CD4^+ T cell division by Poly-G3 oligonucleotides. CFSE-labeled Naïve CD4^+ T cells cocultured with BTIL31 cells or its clones in the presence or absence of Poly-G3 in OKT3-coated 24-well plates. After 3 days of culture, cells were harvested and analyzed for divisions by FACS gated on the CFSE-labeled cells. CFSE-labeled Naïve CD4^+ T cells alone served as a control. (C) Poly-G treatment had no effect on TRAIL-mediated killing activity. BTIL31 cells were cultured in the presence or absence of Poly-G3 for 2 days, and then tested the ability of Poly-G3-treated and untreated BTIL31 cells to kill BC31 autologous tumor cells. […]

BTIL31 γδ1 Treg cells [4] = assay: Naïve CD4+ T cell proliferation with supernatants from TLR ligand-treated BTIL31 cells; assay type: cell-based, human; details: FIG. 13A
Description: as §5
(§6) To test whether the suppressive function of BTIL31 γδ1 Treg cells could be reversed by TLR-8 ligands, cells were treated with a panel of TLR ligands and then test their ability to suppress naïve T cell proliferation. […] After 48 h, CFSE-labeled cells were gated for FACS analysis.

BTIL31 γδ1 Treg cells [5] = assay: CFSE-labeled naïve CD4+ T cell division in coculture with BTIL31 cells or clones; assay type: cell-based, human; details: coculture with BTIL31 bulk cells or clones, FACS, FIG. 13B
Description: as §5, §6

Molecule: poly(I:C)
- Restoration of Treg cell suppressed proliferation of naïve CD4+ T cells (PTIL194 and PTIL237): no effect

Molecule: AAG*GA [Poly-G2]
- Restoration of Treg cell suppressed proliferation of naïve CD4+ T cells (PTIL194 and PTIL237): Restoration
- Reversal of suppressive function of CD4+ Treg-containing cell populations and Treg cell clones (CD4+ Treg cells): abolished; also recorded: Reversal of suppressive function
- Reversal of suppressive function of CD8+ Treg-containing cell populations and clones (CD8+ Treg cells): Reversal of suppressive function

Molecule: C=CCn1c(=O)n([C@@H]2O[C@H](CO)[C@@H](O)[C@H]2O)c2nc(N)[nH]c(=O)c21 [loxoribine]
- Restoration of Treg cell suppressed proliferation of naïve CD4+ T cells (PTIL194 and PTIL237): no effect

Molecule: pam3CSK4
- Restoration of Treg cell suppressed proliferation of naïve CD4+ T cells (PTIL194 and PTIL237): no effect

Molecule: CC(C)Cn1cnc2c(N)nc3ccccc3c21 [imiquimod, Imiquimod]
- Restoration of Treg cell suppressed proliferation of naïve CD4+ T cells (PTIL194 and PTIL237): no effect
- Effect on naturally occurring CD4+ CD25+ Treg cells [1]: little or no effect

Molecule: AG*G*GA [Poly-G3]
- Reversal of the suppressive function of BTIL31 γδ1 Treg cells (proliferation of naïve CD4+ T cells) (BTIL31 γδ1 Treg cells [2]): reverse the suppressive function
- Effect on TRAIL-mediated killing of BC31 tumor cells by BTIL31 cells (BTIL31 γδ1 Treg cells [3]): no effect
- Effect of supernatants from ligand-treated γδ1 Treg cells on proliferation of naïve CD4+ T cells (BTIL31 γδ1 Treg cells [4]): enhanced rather than inhibited
- Restoration of proliferation or division of CFSE-labeled naïve CD4+ T cells (BTIL31 γδ1 Treg cells [5]): Restoration
- Restoration of proliferation or division of CFSE-labeled naïve CD4+ T cells (BTIL31 γδ1 Treg cells [5]; listed as poly-G3): completely restored

Reference: patent US20080026986A1, “REVERSAL OF THE SUPPRESSIVE FUNCTION OF SPECIFIC T CELLS VIA TOLL-LIKE RECEPTOR 8 SIGNALING” (priority 2006, published 2008)
